In publication doi:10.1101/2025.10.23.684218v2, “Development of a dual chemical probe for the USP16 and HDAC6 zinc-finger ubiquitin-binding domain” (biorxiv, 2025):
Like-named read-outs stand apart in the source and are kept apart here.

Columns and labels:
Assay in all cases: biochemical
Set-up in all cases: SPR, steady-state binding to immobilised biotinylated UBD proteins
USP51 = molecular target: T1, USP51 (Homo sapiens, UniProt Q70EK9)
T1 construct: UBD, residues 176-305
T1 sequence (Q70EK9 1-711): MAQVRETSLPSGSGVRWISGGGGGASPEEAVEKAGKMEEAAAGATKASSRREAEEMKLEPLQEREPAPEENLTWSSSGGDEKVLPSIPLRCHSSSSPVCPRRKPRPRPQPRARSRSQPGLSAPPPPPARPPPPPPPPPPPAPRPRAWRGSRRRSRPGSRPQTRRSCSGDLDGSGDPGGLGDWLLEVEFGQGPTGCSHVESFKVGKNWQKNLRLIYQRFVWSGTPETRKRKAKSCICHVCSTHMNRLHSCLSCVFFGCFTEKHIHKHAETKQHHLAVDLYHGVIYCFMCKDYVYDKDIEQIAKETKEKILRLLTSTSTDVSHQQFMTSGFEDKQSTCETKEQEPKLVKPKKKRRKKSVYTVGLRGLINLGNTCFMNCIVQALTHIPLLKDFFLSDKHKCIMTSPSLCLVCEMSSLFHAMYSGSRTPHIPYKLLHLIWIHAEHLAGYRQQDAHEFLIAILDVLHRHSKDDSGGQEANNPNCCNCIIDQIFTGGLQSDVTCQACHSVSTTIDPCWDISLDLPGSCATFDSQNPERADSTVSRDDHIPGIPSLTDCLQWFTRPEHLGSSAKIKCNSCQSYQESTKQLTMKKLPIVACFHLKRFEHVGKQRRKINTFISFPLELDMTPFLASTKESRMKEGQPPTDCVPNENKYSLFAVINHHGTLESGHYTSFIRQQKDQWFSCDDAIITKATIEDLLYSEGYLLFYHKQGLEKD

USP5 = molecular target: T2, USP5 (Homo sapiens, UniProt P45974)
T2 construct: UBD, residues 171-290
T2 sequence (P45974 1-858): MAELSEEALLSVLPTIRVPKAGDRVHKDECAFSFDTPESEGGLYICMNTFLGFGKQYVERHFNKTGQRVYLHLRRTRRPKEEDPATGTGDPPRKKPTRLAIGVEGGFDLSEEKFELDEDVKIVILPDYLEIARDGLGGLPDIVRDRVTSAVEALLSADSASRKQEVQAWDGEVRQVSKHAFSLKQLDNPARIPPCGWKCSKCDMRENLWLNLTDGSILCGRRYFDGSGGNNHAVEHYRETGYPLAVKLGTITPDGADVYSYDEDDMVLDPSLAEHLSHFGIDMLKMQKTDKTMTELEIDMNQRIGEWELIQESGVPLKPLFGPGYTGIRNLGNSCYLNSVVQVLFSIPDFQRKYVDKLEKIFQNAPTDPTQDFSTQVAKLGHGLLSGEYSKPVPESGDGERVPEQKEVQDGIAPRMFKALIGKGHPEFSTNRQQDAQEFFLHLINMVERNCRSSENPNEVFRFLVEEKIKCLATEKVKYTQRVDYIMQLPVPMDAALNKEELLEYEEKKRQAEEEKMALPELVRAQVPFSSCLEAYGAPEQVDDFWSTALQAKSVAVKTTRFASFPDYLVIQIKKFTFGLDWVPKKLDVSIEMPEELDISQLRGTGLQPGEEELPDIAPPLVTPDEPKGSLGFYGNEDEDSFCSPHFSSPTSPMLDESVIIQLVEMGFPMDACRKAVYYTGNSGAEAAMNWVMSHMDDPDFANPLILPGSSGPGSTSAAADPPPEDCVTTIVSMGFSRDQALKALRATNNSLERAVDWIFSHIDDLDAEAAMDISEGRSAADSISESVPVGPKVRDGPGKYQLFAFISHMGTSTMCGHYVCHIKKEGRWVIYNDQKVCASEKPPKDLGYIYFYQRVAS

USP13 = molecular target: T3, USP13 (Homo sapiens, UniProt Q92995)
T3 construct: UBD, residues 183-307
T3 sequence (Q92995 1-863): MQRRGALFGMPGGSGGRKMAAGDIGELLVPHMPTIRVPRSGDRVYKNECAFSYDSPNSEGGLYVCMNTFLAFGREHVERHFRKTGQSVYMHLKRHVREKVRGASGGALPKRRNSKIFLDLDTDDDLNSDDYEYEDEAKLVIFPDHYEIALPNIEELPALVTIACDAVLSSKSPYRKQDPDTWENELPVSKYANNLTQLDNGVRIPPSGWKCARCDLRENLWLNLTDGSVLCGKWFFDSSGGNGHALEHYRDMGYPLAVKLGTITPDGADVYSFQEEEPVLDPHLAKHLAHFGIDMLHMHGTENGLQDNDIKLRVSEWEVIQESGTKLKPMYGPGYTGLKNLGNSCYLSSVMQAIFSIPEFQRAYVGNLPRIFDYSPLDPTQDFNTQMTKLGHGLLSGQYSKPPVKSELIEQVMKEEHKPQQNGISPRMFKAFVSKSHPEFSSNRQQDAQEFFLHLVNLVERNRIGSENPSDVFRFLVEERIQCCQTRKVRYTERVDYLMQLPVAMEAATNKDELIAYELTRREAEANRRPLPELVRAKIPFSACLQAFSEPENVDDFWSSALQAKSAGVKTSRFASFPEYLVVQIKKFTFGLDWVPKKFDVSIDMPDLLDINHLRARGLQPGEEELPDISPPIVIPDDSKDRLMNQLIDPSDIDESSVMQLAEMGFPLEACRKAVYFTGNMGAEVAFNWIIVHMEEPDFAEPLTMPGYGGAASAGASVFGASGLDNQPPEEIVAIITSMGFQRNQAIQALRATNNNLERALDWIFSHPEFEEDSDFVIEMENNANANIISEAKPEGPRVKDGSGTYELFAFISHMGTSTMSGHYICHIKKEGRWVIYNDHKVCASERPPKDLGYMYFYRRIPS

[1] = read-out: Probe KD (nM) SGC-UBD1031
[2] = read-out: Negative Control KD (nM) SGC-UBD1031N

Kd (USP51; [1]) | Kd (USP5; [1]) | Kd (USP13; [1]) | Kd (USP51; [2]) | Kd (USP5; [2]) | Kd (USP13; [2]) | Compound
> 10000 nM | 2600 ± 1400 nM | > 10000 nM | – | – | – | C[C@H](NC(=O)Cn1c(CCC(=O)O)nc2c(Cl)cccc2c1=O)c1c(F)cccc1F [compound 15, (S)-3-(8-chloro-3-(2-((1-(2,6-difluorophenyl)ethyl)amino)-2-oxoethyl)-4-oxo-3,4-dihydroquinazolin-2-yl)propanoic acid]
– | – | – | > 10000 nM | > 10000 nM | > 10000 nM | C[C@@H](NC(=O)Cn1c(CCC(=O)O)nc2c(Cl)cccc2c1=O)c1c(F)cccc1F [compound 16, (R)-3-(8-chloro-3-(2-((1-(2,6-difluorophenyl)ethyl)amino)-2-oxoethyl)-4-oxo-3,4-dihydroquinazolin-2-yl)propanoic acid]
